Experimental data as given in US20050282818A1, “Ubiquitin ligase inhibitors” (Rigel Pharmaceuticals, Inc., priority 2004, published 2005).
Like-named read-outs stand apart in the source and are kept apart here.

What was measured:
A549 cells = assay: Cell proliferation PAD assay, A549; assay type: cell-based; details: Homo sapiens, 48 hours
In short: (§1)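 Cells plated at 2,000/well; compounds added 24 h later as 6.3-fold dilutions from a 10 mM master stock, diluted 500-fold into wells, in duplicate. After 48 h at 37 °C, 5% CO2, cells were formamide-fixed, DAPI-stained and imaged to count live, apoptotic and dead cells.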

TRAF6/Uev1A/Ubc13 = biological target: T1, TRAF6/Uev1A/Ubc13 (Homo sapiens, UniProt Q9Y4K3); assay: TRAF6/Uev1A/Ubc13 plate-based ubiquitin ligase assay; assay type: biochemical
T1 sequence (Q9Y4K3 1-522): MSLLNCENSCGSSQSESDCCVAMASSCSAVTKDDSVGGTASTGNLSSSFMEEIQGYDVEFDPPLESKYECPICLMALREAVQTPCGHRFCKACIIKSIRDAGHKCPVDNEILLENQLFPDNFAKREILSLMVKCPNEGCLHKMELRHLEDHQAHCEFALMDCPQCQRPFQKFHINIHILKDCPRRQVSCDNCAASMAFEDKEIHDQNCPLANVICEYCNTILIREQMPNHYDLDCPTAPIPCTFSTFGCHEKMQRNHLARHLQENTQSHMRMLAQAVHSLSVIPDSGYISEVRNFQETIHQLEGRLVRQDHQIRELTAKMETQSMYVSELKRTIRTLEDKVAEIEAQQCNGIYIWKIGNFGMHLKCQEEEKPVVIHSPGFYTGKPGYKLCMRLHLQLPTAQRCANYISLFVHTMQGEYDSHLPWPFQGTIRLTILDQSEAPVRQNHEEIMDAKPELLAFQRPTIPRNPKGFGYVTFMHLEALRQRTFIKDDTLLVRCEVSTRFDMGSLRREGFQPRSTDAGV
In short: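 Ligase activity was read as luminescence from anti-Flag/HRP detection of Flag-ubiquitin bound to casein-blocked Ni-plates alongside His-ubiquitin after a 1 h room-temperature reaction. Buffer: 62.5 mM Tris pH 7.5, 6.25 mM MgCl2, 1.0 mM DTT, 2 μM ATP; E1, Uev1a/Ubc13 and TRAF6 added last to start. IC50s derived across compound concentrations.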

H1299 cells = assay: Cell proliferation PAD assay, H1299; assay type: cell-based; details: Homo sapiens, 48 hours
In short: as §1

[1] = NCI-H1299, 3pt, read-out: H1299 3pt
[2] = NCI-H1299, 6pt, read-out: H1299 6pt

| IC50 (A549 cells; 3pt, read-out: A549 3pt) | IC50 (TRAF6/Uev1A/Ubc13) | IC50 (H1299 cells; [1]) | IC50 (A549 cells; 6pt, read-out: A549 6pt) | IC50 (H1299 cells; [2]) | Structure (SMILES) |
| --- | --- | --- | --- | --- | --- |
|  | ≥ 20 µM |  | ≥ 20 µM | ≥ 20 µM | COC(=O)c1ccc(Nc2ccc3nonc3c2S(=O)(=O)Nc2ccc(C(=O)OC)cc2)cc1 [compound 10, methyl 4-{[(5-{[4-(methoxycarbonyl)phenyl]amino}-2,1,3-benzoxadiazol-4-yl)sulfonyl]amino}benzoate] |
| ≥ 20 µM | ≥ 20 µM | 1 to 20 µM |  |  | CC1CN(c2ccc3nonc3c2S(=O)(=O)N2CC(C)OC(C)C2)CC(C)O1 (stereo not drawn) [compound 205, 5-(2,6-dimethylmorpholin-4-yl)-4-[(2,6-dimethylmorpholin-4-yl)sulfonyl]-2,1,3-benzoxadiazole] |
| ≥ 20 µM | ≥ 20 µM | ≥ 20 µM |  |  | O=S(=O)(Nc1ccc(Oc2cc(C(F)(F)F)ccn2)cc1)c1cccc2nonc12 [compound 103, N-(4-{[4-(trifluoromethyl)pyridin-2-yl]oxy}phenyl)-2,1,3-benzoxadiazole-4-sulfonamide] |
| ≥ 20 µM | 1 to 20 µM | ≥ 20 µM |  |  | N#Cc1cccnc1N1CCN(c2ccc([N+](=O)[O-])c3nonc23)CC1 [compound 118, 2-[4-(7-nitro-2,1,3-benzoxadiazol-4-yl)piperazin-1-yl]nicotinonitrile] |
| ≥ 20 µM | ≥ 20 µM | ≥ 20 µM |  |  | O=S(=O)(Nc1cccc2nonc12)c1ccc(Oc2ccccc2)cn1 [compound 87, N-2,1,3-benzoxadiazol-4-yl-5-phenoxypyridine-2-sulfonamide] |
| ≥ 20 µM | ≥ 20 µM | ≥ 20 µM |  |  | Cc1cccnc1N1CCN(c2ccc([N+](=O)[O-])c3nonc23)CC1 [compound 156, 4-[4-(3-methylpyridin-2-yl)piperazin-1-yl]-7-nitro-2,1,3-benzoxadiazole] |
| 1 to 20 µM | ≥ 20 µM | 1 to 20 µM | ≥ 20 µM | ≥ 20 µM | O=S(=O)(c1ccc(Cl)c2nonc12)N1CCC(O)(c2ccc(Cl)cc2)CC1 [compound 168, 1-[(7-chloro-2,1,3-benzoxadiazol-4-yl)sulfonyl]-4-(4-chlorophenyl)piperidin-4-ol] |
| ≥ 20 µM | 1 to 20 µM | ≥ 20 µM |  |  | O=S(=O)(Oc1ccc(N2CCN(S(=O)(=O)c3cccc4nonc34)CC2)cc1)c1cccc2nonc12 [compound 139, 4-[4-(2,1,3-benzoxadiazol-4-ylsulfonyl)piperazin-1-yl]phenyl 2,1,3-benzoxadiazole-4-sulfonate] |
| 1 to 20 µM | ≥ 20 µM | ≥ 20 µM |  |  | O=S(=O)(Nc1cccc2nsnc12)c1ccc(Oc2cccnc2)cc1 [compound 116, N-2,1,3-benzothiadiazol-4-yl-4-(pyridin-3-yloxy)benzenesulfonamide] |
| ≥ 20 µM | ≥ 20 µM | ≥ 20 µM |  |  | Cc1cccc(N2CCN(c3ccc([N+](=O)[O-])c4nonc34)CC2)n1 [compound 162, 4-[4-(6-methylpyridin-2-yl)piperazin-1-yl]-7-nitro-2,1,3-benzoxadiazole] |
| 1 to 20 µM | ≥ 20 µM | 1 to 20 µM | ≥ 20 µM | ≥ 20 µM | O=S(=O)(c1ccc(Cl)c2nonc12)N1CCN(c2ccc(O)cc2)CC1 [compound 172, 4-{4-[(7-chloro-2,1,3-benzoxadiazol-4-yl)sulfonyl]piperazin-1-yl}phenol] |
| 1 to 20 µM | ≥ 20 µM | ≥ 20 µM | ≥ 20 µM | ≥ 20 µM | O=S(=O)(c1ccc(F)c2nonc12)N1CCN(c2ncccc2C(F)(F)F)CC1 [compound 165, 4-fluoro-7-({4-[3-(trifluoromethyl)pyridin-2-yl]piperazin-1-yl}sulfonyl)-2,1,3-benzoxadiazole] |
| ≥ 20 µM | ≥ 20 µM | ≥ 20 µM |  |  | CC(=O)N1CCN(c2ccc([N+](=O)[O-])c3nonc23)CC1 [compound 88, 4-(4-acetylpiperazin-1-yl)-7-nitro-2,1,3-benzoxadiazole] |
| ≥ 20 µM | 1 to 20 µM | ≥ 20 µM |  |  | O=[N+]([O-])c1ccc(N2CCN(c3c(Cl)cncc3Cl)CC2)c2nonc12 [compound 151, 4-[4-(3,5-dichloropyridin-4-yl)piperazin-1-yl]-7-nitro-2,1,3-benzoxadiazole] |
|  | 1 to 20 µM |  | ≥ 20 µM | 1 to 20 µM | O=S(=O)(c1ccc(Sc2ccncc2)c2nonc12)N1CCC(O)(c2ccc(Cl)cc2)CC1 [compound 246, 4-(4-chlorophenyl)-1-{[7-(pyridin-4-ylthio)-2,1,3-benzoxadiazol-4-yl]sulfonyl}piperidin-4-ol] |
| ≥ 20 µM | ≥ 20 µM | ≥ 20 µM |  |  | CC1CN(c2ccc(S(=O)(=O)N3CC(C)OC(C)C3)c3nonc23)CC(C)O1 (stereo not drawn) [compound 211, 4-(2,6-dimethylmorpholin-4-yl)-7-[(2,6-dimethylmorpholin-4-yl)sulfonyl]-2,1,3-benzoxadiazole] |
| 1 to 20 µM | 1 to 20 µM | 1 to 20 µM |  |  | O=S(=O)(c1ccc(F)c2nonc12)N1CCC(Oc2ccccc2C(F)(F)F)CC1 [compound 232, 4-fluoro-7-({4-[2-(trifluoromethyl)phenoxy]piperidin-1-yl}sulfonyl)-2,1,3-benzoxadiazole] |
| ≥ 20 µM | ≥ 20 µM | ≥ 20 µM |  |  | O=S(=O)(Nc1cccc2cnccc12)c1cccc2nonc12 [compound 12, N-isoquinolin-5-yl-2,1,3-benzoxadiazole-4-sulfonamide] |
| 1 to 20 µM | ≥ 20 µM | ≥ 20 µM |  |  | O=S(=O)(Nc1ccc2[nH]ncc2c1)c1ccc(Sc2cccc3cccnc23)c2nonc12 [compound 224, N-1H-indazol-5-yl-7-(quinolin-8-ylthio)-2,1,3-benzoxadiazole-4-sulfonamide] |
| ≥ 20 µM | ≥ 20 µM | ≥ 20 µM |  |  | O=S(=O)(Nc1ccc(Oc2ccccc2)cc1)c1cccc2nonc12 [compound 102, N-(4-phenoxyphenyl)-2,1,3-benzoxadiazole-4-sulfonamide] |
| ≥ 20 µM | ≥ 20 µM | ≥ 20 µM |  |  | O=[N+]([O-])c1ccc(Oc2ccc(NS(=O)(=O)c3cccc4nonc34)cc2)cc1 [compound 101, N-[4-(4-nitrophenoxy)phenyl]-2,1,3-benzoxadiazole-4-sulfonamide] |
| 1 to 20 µM | 1 to 20 µM | 1 to 20 µM |  |  | O=S(=O)(c1ccc(Cl)c2nonc12)N1CCC(Oc2ccccc2C(F)(F)F)CC1 [compound 230, 4-chloro-7-({4-[2-(trifluoromethyl)phenoxy]piperidin-1-yl}sulfonyl)-2,1,3-benzoxadiazole] |
| ≥ 20 µM | 1 to 20 µM | ≥ 20 µM |  |  | O=S(=O)(c1ccc(N2CCN(c3ccccc3)CC2)c2nonc12)N1CCN(c2ccccc2)CC1 [compound 187, 4-(4-phenylpiperazin-1-yl)-7-[(4-phenylpiperazin-1-yl)sulfonyl]-2,1,3-benzoxadiazole] |
| ≥ 20 µM | ≥ 20 µM | ≥ 20 µM |  |  | CC(C)(C)OC(=O)N1CCN(c2ccc([N+](=O)[O-])c3nonc23)CC1 [compound 72, Tert-butyl 4-(7-nitro-2,1,3-benzoxadiazol-4-yl)piperazine-1-carboxylate] |
| ≥ 20 µM | ≥ 20 µM | ≥ 20 µM |  |  | O=S(=O)(Nc1cccc2nonc12)c1ccc(Oc2cccnc2)cc1 [compound 86, N-2,1,3-benzoxadiazol-4-yl-4-(pyridin-3-yloxy)benzenesulfonamide] |

| Structure (SMILES) | IC50 (A549 cells; 3pt, read-out: A549 3pt) | IC50 (TRAF6/Uev1A/Ubc13) | IC50 (H1299 cells; [1]) | IC50 (A549 cells; 6pt, read-out: A549 6pt) | IC50 (H1299 cells; [2]) |
| --- | --- | --- | --- | --- | --- |
| O=[N+]([O-])c1ccc(N2CCNCC2)c2nonc12 [compound 112, 4-nitro-7-piperazin-1-yl-2,1,3-benzoxadiazole] | ≥ 20 µM | ≥ 20 µM | ≥ 20 µM |  |  |
| O=[N+]([O-])c1ccc(N2CCN(c3cccc(C(F)(F)F)c3)CC2)c2nonc12 [compound 106, 4-nitro-7-{4-[3-(trifluoromethyl)phenyl]piperazin-1-yl}-2,1,3-benzoxadiazole] | ≥ 20 µM | ≥ 20 µM | ≥ 20 µM |  |  |
| O=[N+]([O-])c1ccc(N2CCC(c3ccncc3)CC2)c2nonc12 [compound 283, 4-nitro-7-(4-pyridin-4-ylpiperidin-1-yl)-2,1,3-benzoxadiazole] | ≥ 20 µM | ≥ 20 µM | ≥ 20 µM |  |  |
| O=[N+]([O-])c1ccc(N2CCC(Oc3ncccn3)CC2)c2nonc12 [compound 280, 4-nitro-7-[4-(pyrimidin-2-yloxy)piperidin-1-yl]-2,1,3-benzoxadiazole] | ≥ 20 µM | ≥ 20 µM | ≥ 20 µM |  |  |
